Reference: patent publication US20260327225A1, “HETEROCYCLIC COMPOUNDS AS TRIGGERING RECEPTOR EXPRESSED ON MYELOID CELLS 2 AGONISTS AND METHODS OF USE” (VIGIL NEUROSCIENCE, INC., priority 2023, published 2026)

Molecular target: T1, human TREM2 (Homo sapiens, UniProt Q9NZC2)
T1 construct: expressed in transfected cells; host or cells: HEK293T-hTREM2 cells (HEK cell line expressing human TREM2 and DAP12)
Test: TREM2 agonist potency by cellular phosphorylation of Syk (AlphaLisa) in HEK293T-hTREM2 cells expressing human TREM2 and DAP12
Type: cell-based
Conditions: HEK293 cells expressing hTREM2 and DAP12; 45 minutes at room temperature; Syk phosphorylation, AlphaLisa; read-out: hTREM2 EC50
Method in brief: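 HEK293T cells co-expressing human TREM2 and DAP12 were exposed to compound in assay buffer for 45 min at room temperature, then lysed. Phospho-Syk measured by AlphaLisa; % activation fitted with a four-parameter agonist curve to give EC50.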

T1 sequence (Q9NZC2 19-230): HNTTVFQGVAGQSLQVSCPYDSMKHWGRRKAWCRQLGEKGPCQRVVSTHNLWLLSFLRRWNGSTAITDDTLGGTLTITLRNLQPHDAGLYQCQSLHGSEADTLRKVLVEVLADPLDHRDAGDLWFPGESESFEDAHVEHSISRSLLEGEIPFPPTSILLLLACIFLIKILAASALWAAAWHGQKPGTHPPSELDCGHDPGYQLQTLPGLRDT
T1 sequence (O43914 22-113 partner): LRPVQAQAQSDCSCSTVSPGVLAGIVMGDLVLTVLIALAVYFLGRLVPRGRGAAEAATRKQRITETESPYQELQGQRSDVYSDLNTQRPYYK

`Cc1nc2nc(N3C[C@@H](C)O[C@@H](c4cnn(C5CC5)c4)C3)nc(C3CCCC3)c2cc1C#N` [Example 72, 4-cyclopentyl-2-[(2S,6R)-2-(1-cyclopropyl-pyrazol-4-yl)-6-methyl-morpholin-4-yl]-7-methyl-pyrido[2,3-d]pyrimidine-6-carbonitrile] and `Cc1cc2c(C3CCCC3)nc(N3C[C@@H](C)O[C@@H](c4cnn(C5CC5)c4)C3)nc2nc1C` [Example 65, (2S,6R)-4-(4-cyclopentyl-6,7-dimethylpyrido[2,3-d]pyrimidin-2-yl)-2-(1-cyclopropylpyrazol-4-yl)-6-methylmorpholine] cannot be ordered by EC50: under 100 nM for the first, under 100 nM for the second.

First: CC1Cc2c(nc([C@H]3CCO[C@@H](c4cnn(C5CC5)c4)C3)nc2-c2ccc(C(F)(F)F)cc2F)C(=O)N1C (stereo partly drawn) [Example 138, 2-[(2R,4S)-2-(1-cyclopropylpyrazol-4-yl)tetrahydropyran-4-yl]-4-[2-fluoro-4-(trifluoromethyl)phenyl]-6,7-dimethyl-5,6-dihydropyrido[3,4-d]pyrimidin-8-one formic acid]
Second: Cc1cc2c(-c3ccc(C(F)(F)F)cc3F)nc([C@H]3CCO[C@@H](c4cnn(C5CC5)c4)C3)nc2c(=O)n1C [Example 136, 2-[(2R,4S)-2-(1-cyclopropylpyrazol-4-yl)tetrahydropyran-4-yl]-4-[2-fluoro-4-(trifluoromethyl)phenyl]-6,7-dimethyl-pyrido[3,4-d]pyrimidin-8-one]
The EC50 of the first is higher: over 500 nM for the first, under 100 nM for the second. The second is the more potent here.

`Cc1nc2nc(N3C[C@@H](C)O[C@@H](c4cnn(C5CC5)c4)C3)nc(C34CC(C(F)(F)F)(C3)C4)c2nc1C1COC1` [Example 84, (2S,6R)-2-(1-cyclopropyl-pyrazol-4-yl)-6-methyl-4-[7-methyl-6-(oxetan-3-yl)-4-[3-(trifluoromethyl)-1-bicyclo[1.1.1]pentanyl]-pteridin-2-yl]morpholine] and `Cc1nc2nc(N3C[C@@H](C)O[C@@H](c4cnn(C5CC5)c4)C3)nc(C34CC(C(F)(F)F)(C3)C4)c2cc1C#N` [Example 25, 2-[(2S,6R)-2-(1-cyclopropylpyrazol-4-yl)-6-methyl-morpholin-4-yl]-7-methyl-4-[3-(trifluoromethyl)-1-bicyclo[1.1.1]pentanyl]pyrido[2,3-d]pyrimidine-6-carbonitrile] cannot be ordered by EC50: under 100 nM for the first, under 100 nM for the second.

First: Cc1nc2nc(N3C[C@@H](C)O[C@@H](c4cnn(CC(F)F)c4)C3)nc(C34CC(C(F)(F)F)(C3)C4)c2cc1C#N [Example 70, 2-((2S,6R)-2-(1-(2,2-difluoroethyl)-1H-pyrazol-4-yl)-6-methyl-morpholino)-7-methyl-4-(3-(trifluoromethyl)bicyclo[1.1.1]pentan-1-yl)pyrido[2,3-d]pyrimidine-6-carbonitrile]
Second: Cc1nc2nc(N3C[C@@H](C)O[C@@H](c4cnn(C5CC5)c4)C3)nc(C34CC(C(F)(F)F)(C3)C4)c2cc1C(F)(F)Cl (racemic) [Example 90, (2S,6R)-4-(6-(chloro-difluoromethyl)-7-methyl-4-(3-(trifluoromethyl)-bicyclo[1.1.1]pentan-1-yl)pyrido[2,3-d]pyrimidin-2-yl)-2-(1-cyclopropyl-1H-pyrazol-4-yl)-6-methylmorpholine]
The EC50 of the first is lower: under 100 nM for the first, 100 to 500 nM for the second.

Going from `Cc1nc2nc(N3C[C@@H](C)O[C@@H](c4cnn(C5CC5)c4)C3)nc(-c3ccc(F)cc3F)c2cc1C(=O)N(C)C` [Example 2, 2-((2S,6R)-2-(1-cyclopropyl-1H-pyrazol-4-yl)-6-methylmorpholino)-4-(2,4-difluorophenyl)-N,N-7-trimethylpyrido[2,3-d]pyrimidine-6-carboxamide] to `Cc1nnc(-c2cc3c(-c4ccc(F)cc4F)nc(N4C[C@@H](C)O[C@@H](c5cnn(C6CC6)c5)C4)nc3nc2C)o1` [Example 12, (2S,6R)-2-(1-cyclopropylpyrazol-4-yl)-4-[4-(2,4-difluorophenyl)-7-methyl-6-(5-methyl-1,3,4-oxadiazol-2-yl)pyrido[2,3-d]pyrimidin-2-yl]-6-methyl-morpholine], the EC50 falls from over 500 nM to under 100 nM. The second is the more potent here.

`Cc1noc(-c2cc3c(C4CCCCC4)nc(N4C[C@@H](C)O[C@@H](c5cnn(C6CC6)c5)C4)nc3nc2C)n1` [Example 33, (2S,6R)-4-[4-cyclohexyl-7-methyl-6-(3-methyl-1,2,4-oxadiazol-5-yl)-pyrido[2,3-d]pyrimidin-2-yl]-2-(1-cyclopropylpyrazol-4-yl)-6-methyl-morpholine] and `Cc1noc(-c2cc3c(-c4ccc(F)cc4F)nc(N4C[C@@H](C)O[C@@H](c5cnn(C6CC6)c5)C4)nc3nc2C)n1` [Example 6, (2S,6R)-2-(1-cyclopropylpyrazol-4-yl)-4-[4-(2,4-difluorophenyl)-7-methyl-6-(3-methyl-1,2,4-oxadiazol-5-yl)-pyrido[2,3-d]pyrimidin-2-yl]-6-methyl-morpholine] cannot be ordered by EC50: under 100 nM for the first, under 100 nM for the second.

`Cc1nc2nc(C3CCOC(c4ccc5ncnn5c4)C3)nc(-c3ccc(F)cc3F)c2nc1C` (centres unmarked) [Example 95] and `Cc1nc2nc([C@H]3CCO[C@@H](c4cnn(C5CC5)c4)C3)nc(C34CC(C(F)(F)F)(C3)C4)c2cc1-c1cnn(C)c1` [Example 26, 2-((2R,4S)-2-(1-cyclopropyl-1H-pyrazol-4-yl)tetrahydro-2H-pyran-4-yl)-7-methyl-6-(1-methyl-1H-pyrazol-4-yl)-4-(3-(trifluoromethyl)bicyclo[1.1.1]pentan-1-yl)pyrido[2,3-d]pyrimidine] cannot be ordered by EC50: under 100 nM for the first, under 100 nM for the second.

`Cc1nc2nc([C@H]3CCO[C@@H](c4cnn(C5CC5)c4)C3)nc(C34CC(C(F)(F)F)(C3)C4)c2cc1[S+](C)[O-]` (stereo partly drawn) [Example 32, 2-[(2R,4S)-2-(1-cyclopropylpyrazol-4-yl)tetrahydropyran-4-yl]-7-methyl-6-methylsulfinyl-4-[3-(trifluoromethyl)-1-bicyclo[1.1.1]pentanyl]pyrido[2,3-d]pyrimidine] and `Cc1nc2nc(N3C[C@@H](C)O[C@@H](c4cnn(C5CC5)c4)C3)nc(C34CC(C3)C4)c2nc1C` [Example 100, (2S,6R)-4-[4-(1-bicyclo[1.1.1]pentanyl)-6,7-dimethyl-pteridin-2-yl]-2-(1-cyclopropylpyrazol-4-yl)-6-methyl-morpholine] cannot be ordered by EC50: under 100 nM for the first, under 100 nM for the second.

With `Cc1nc2nc(N3C[C@@H](C)O[C@@H](c4ccnc(N(C)C)c4)C3)nc(C34CC(C(F)(F)F)(C3)C4)c2nc1C` (racemic) [Example 142, N,N-dimethyl-4-[rac-(2S,6R)-4-[6,7-dimethyl-4-[3-(trifluoromethyl)-1-bicyclo[1.1.1]pentanyl]pteridin-2-yl]-6-methyl-morpholin-2-yl]pyridin-2-amine] the EC50 was 100 to 500 nM.
